The record followed here is PubChem BioAssay (NCI).

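A five-concentration, 48-hour dose response in 96-well plates underlies each endpoint, interpolated linearly between surrounding concentrations. TGI denotes the concentration required for complete inhibition of growth.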

Test systems include OVCAR-5 ovarian; RPMI-8226 leukemia; ACHN renal; CCRF-CEM leukemia; SW-620 colon; IGROV1 ovarian; UO-31 renal; LOX IMVI melanoma; SF-295 CNS; SF-268 CNS.
What all share (experiment): DTP human tumour cell line panel, 48 h

As for `CCOP(=O)(OCC)C(Nc1cccc(F)c1)c1ccc(N(C)C)cc1` (configuration not stated), the TGI in the test on OVCAR-5 ovarian, in the test with RPMI-8226 leukemia, in the test on ACHN renal, with CCRF-CEM leukemia, in the test with SW-620 colon and in the test on IGROV1 ovarian was > 100 µM throughout. The TGI with UO-31 renal, in the test on LOX IMVI melanoma, with SF-295 CNS and in the test with SF-268 CNS was > 100 µM throughout.

Consider `CC1CC(Br)C(=O)O1` (configuration not stated), for which the TGI in the test on OVCAR-5 ovarian, with RPMI-8226 leukemia, with ACHN renal, with CCRF-CEM leukemia, with SW-620 colon and in the test on IGROV1 ovarian was > 100 µM throughout. For the same compound, the TGI with UO-31 renal, in the test on LOX IMVI melanoma, in the test on SF-295 CNS and in the test with SF-268 CNS was > 100 µM in each case.

Consider `COC(=O)NC1C(C)OC(OC2C/C=C(/C)C3C=CC4C(OC5CC(OC6CC(OC7CC(O)C(O)C(C)O7)C(OC7CC(O)C(OC)C(C)O7)C(C)O6)C(O)C(C)O5)C(C)CC(C)C4C3(C)/C(O)=C3\C(=O)OC4(CC(C)C(CO)=CC4/C=C\2C)C3=O)CC1(C)[N+](=O)[O-]` (configuration not stated), for which the TGI (as a rule, the concentration at which net growth stops) in the test on OVCAR-5 ovarian was 42.1 µM; in the test with RPMI-8226 leukemia, 7.66 µM; in the test with ACHN renal, 27.2 µM; with CCRF-CEM leukemia, 15.9 µM; with SW-620 colon, > 100 µM; in the test with IGROV1 ovarian, 34 µM. Besides, the TGI in the test on UO-31 renal is 51.3 µM; with LOX IMVI melanoma, 14.8 µM; in the test with SF-295 CNS it was 53.2 µM; with SF-268 CNS it was > 100 µM.

Regarding `COc1cc([N+](=O)[O-])ccc1N1C(=O)C2c3[nH]c4ccccc4c3C3CCC(C(C)(C)C)CC3C2C1=O` (configuration not stated), the TGI in the test with OVCAR-5 ovarian, with RPMI-8226 leukemia, in the test on ACHN renal, with CCRF-CEM leukemia, in the test on SW-620 colon and with IGROV1 ovarian was > 100 µM in each case. Besides, the TGI in the test on UO-31 renal and in the test with LOX IMVI melanoma was > 100 µM in each case.

Take `CS(=O)(=O)OCCN(CCOS(C)(=O)=O)c1ccc(/C=N/Nc2ncnc3nc[nH]c23)cc1`: the TGI in the test on OVCAR-5 ovarian is 51.4 µM; in the test on RPMI-8226 leukemia it was 39 µM; in the test with ACHN renal, 97.2 µM; with CCRF-CEM leukemia, > 100 µM; in the test on SW-620 colon, 66.8 µM; with IGROV1 ovarian it was 71.6 µM. Moreover, the TGI amounted to 92 µM in the test with UO-31 renal, 37.7 µM with LOX IMVI melanoma, 46.6 µM with SF-295 CNS and 46.1 µM in the test with SF-268 CNS.

Regarding `CCCCCCCN(CCCCCCC)CC(O)c1cc2ccccc2c2cc(Br)ccc12` (configuration not stated), the TGI in the test on OVCAR-5 ovarian, in the test on RPMI-8226 leukemia, in the test with ACHN renal, in the test with CCRF-CEM leukemia, in the test with SW-620 colon and in the test with IGROV1 ovarian was > 100 µM in each case. Besides, the TGI is > 100 µM with UO-31 renal, > 100 µM in the test on LOX IMVI melanoma and 54.8 µM with SF-268 CNS.

For `CCO[C@]12CCC[C@H]1[C@@H]1C(=O)c3ccccc3C(=O)C1=C(C)O2`, the TGI with OVCAR-5 ovarian, with RPMI-8226 leukemia, in the test on ACHN renal, in the test with CCRF-CEM leukemia, in the test with SW-620 colon and with IGROV1 ovarian was > 100 µM each time. The TGI with UO-31 renal is > 100 µM; in the test with LOX IMVI melanoma it was 44.7 µM; in the test with SF-295 CNS it was > 100 µM; with SF-268 CNS, > 100 µM.

Turning to `c1c2c(cc3c1OCO3)-c1cc3ccc4c(c3c[n+]1CC2)OCO4`, the TGI in the test with OVCAR-5 ovarian, in the test on RPMI-8226 leukemia, in the test with ACHN renal, in the test on CCRF-CEM leukemia, in the test on SW-620 colon and in the test with IGROV1 ovarian was > 12.5 µM each time. For the same compound, the TGI is > 12.5 µM with UO-31 renal, > 8.44 µM in the test with LOX IMVI melanoma, 3.52 µM with SF-295 CNS and > 12.5 µM with SF-268 CNS.

On to `Oc1ccc(-c2nc3cc(F)ccc3s2)cc1`, for which the total growth inhibition concentration (TGI) is 58.4 µM in the test on OVCAR-5 ovarian; 60.5 µM in the test with RPMI-8226 leukemia; 40.7 µM in the test with ACHN renal; > 100 µM in the test with CCRF-CEM leukemia; > 100 µM with SW-620 colon; 43.4 µM in the test on IGROV1 ovarian. Also, the TGI in the test with UO-31 renal came out at 49.9 µM; with LOX IMVI melanoma, 33.3 µM; in the test with SF-295 CNS it was 48.6 µM; with SF-268 CNS, 74 µM.

As to `Cc1c2cc[n+](C)cc2c(C)c2c1oc1ccccc12`, the TGI was 64 µM with OVCAR-5 ovarian; 30.1 µM in the test on RPMI-8226 leukemia; > 100 µM in the test with ACHN renal; 45.9 µM in the test on CCRF-CEM leukemia; 51.4 µM in the test on SW-620 colon; 52.6 µM with IGROV1 ovarian. Moreover, the TGI with UO-31 renal is > 100 µM; in the test on LOX IMVI melanoma it was 19.7 µM; in the test with SF-295 CNS, 12.2 µM; in the test on SF-268 CNS it was 2.71 µM.

As to `CCSc1nc(-c2cccs2)nc2ccc(I)cc12`, the TGI in the test on OVCAR-5 ovarian, with RPMI-8226 leukemia, in the test on ACHN renal, in the test with CCRF-CEM leukemia, with SW-620 colon and in the test with IGROV1 ovarian was > 100 µM in each case. The TGI in the test on UO-31 renal, in the test on LOX IMVI melanoma, with SF-295 CNS and with SF-268 CNS was > 100 µM in each case.

For the compound `NCCNCCNc1ccc(NCCNCCN)c2c1C(=O)c1c(O)ccc(O)c1C2=O`, the TGI in the test on OVCAR-5 ovarian, with RPMI-8226 leukemia, in the test with ACHN renal, in the test on CCRF-CEM leukemia, with SW-620 colon and with IGROV1 ovarian was > 100 µM each time. Besides, the TGI in the test on UO-31 renal, with LOX IMVI melanoma, in the test with SF-295 CNS and with SF-268 CNS was > 100 µM in each case.

For `COc1cc([N+](=O)[O-])ccc1NC(=O)c1cccc([N+](=O)[O-])c1O`, the TGI with OVCAR-5 ovarian is > 100 µM; in the test with RPMI-8226 leukemia it was 61.9 µM; in the test on ACHN renal it was 62 µM; in the test on CCRF-CEM leukemia, > 100 µM; in the test with SW-620 colon, > 100 µM; with IGROV1 ovarian, > 100 µM. For the same compound, the TGI with UO-31 renal is 56.5 µM; in the test with LOX IMVI melanoma, > 100 µM; in the test on SF-295 CNS, 81.6 µM; in the test on SF-268 CNS, > 100 µM.

As for `Nc1nc(OCC2CCCCC2)c2[nH]cnc2n1`, the TGI in the test with OVCAR-5 ovarian is 53.1 µM; in the test with RPMI-8226 leukemia, 55.5 µM; in the test with ACHN renal it was 38.4 µM; with CCRF-CEM leukemia, 43.6 µM; in the test on SW-620 colon, > 100 µM; with IGROV1 ovarian, > 48.6 µM. In addition, the total growth inhibition concentration (TGI) in the test on UO-31 renal was 38.2 µM; in the test with LOX IMVI melanoma it was 37.7 µM; with SF-295 CNS it was > 75.6 µM; in the test with SF-268 CNS, > 100 µM.

In the case of `O=C1OC2(OC2c2ccc(Cl)cc2)c2ccccc21` (configuration not stated), the TGI in the test with OVCAR-5 ovarian, with RPMI-8226 leukemia, in the test with ACHN renal, in the test with CCRF-CEM leukemia, with SW-620 colon and in the test with IGROV1 ovarian was > 100 µM each time. Moreover, the TGI was > 100 µM in the test on UO-31 renal, 34 µM in the test with LOX IMVI melanoma, > 100 µM with SF-295 CNS and > 100 µM with SF-268 CNS.

For the compound `CNC(C)Cc1ccccc1OC` (configuration not stated), the TGI in the test with OVCAR-5 ovarian, with RPMI-8226 leukemia, in the test with ACHN renal, in the test with CCRF-CEM leukemia, in the test with SW-620 colon and with IGROV1 ovarian was > 100 µM in each case. Moreover, the TGI in the test on UO-31 renal, in the test on LOX IMVI melanoma, in the test with SF-295 CNS and in the test on SF-268 CNS was > 100 µM each time.

`CN(C)c1ccc(/C=c2/c3ccccc3n3c2cc(NC(=O)NCCC[N+](C)(C)C)[n+]3C)cc1`: the TGI in the test on OVCAR-5 ovarian was > 100 µM; in the test with RPMI-8226 leukemia, > 100 µM; in the test on ACHN renal, > 100 µM; in the test on CCRF-CEM leukemia it was 2.04 µM; in the test with SW-620 colon it was > 100 µM; with IGROV1 ovarian it was 46.9 µM. In addition, the TGI with UO-31 renal, with LOX IMVI melanoma, in the test with SF-295 CNS and in the test on SF-268 CNS was > 100 µM each time.
